Reference: patent US20150133434A1, “Compositions and Methods for Reactivating Latent Immunodeficiency Virus” (priority 2012, published 2015)
“Also recorded” adds a separate entry of the source.

Experiments:
[1] = test system: latent LTR-Tat-IRES-GFP construct in J-Lat A2 cells; test: J-Lat A2 cells (LTR-Tat-IRES-GFP), flow cytometry of GFP; type: cell-based, HIV-1; details: 18 h
Method: (§1) HEK293T and Jurkat cells were obtained from the American Type Culture Collection. J-Lat (clones A2 and A72) cell lines were described. HEK293T cells were cultured in DMEM supplemented with 10% FBS, 1% L-glutamine and 1% penicillin-streptomycin (Life Technologies). Jurkat and J-Lat cells were cultured in RPMI supplemented with 10% FBS, 1% L-glutamine, and 1% penicillin-streptomycin. TNFα (Sigma-Aldrich) was used at concentrations of 0.25 or 1 ng/ml. Human αCD3 and αCD28 (BD Biosciences) were used at concentrations of 3 and 1 μg/ml, respectively. Prostratin (Sigma) was used at a suboptimal concentration of 0.5 μM, and SAHA (NCI Chemical Carcinogen Repository, Midwest Research Institute) was used at 2.5 μM.
(§2) To determine if BET inhibition specifically activates Tat-dependent transcription, a J-Lat cell line was utilized that harbored a latent lentiviral construct expressing Tat with GFP from the HIV LTR (clone A2; LTR-Tat-IRES-GFP). […] Stimulation with JQ1 yielded up to ninefold more GFP-expressing cells than control-treated cells, and a 22-fold increase was observed when cells were co-treated with JQ1 and low doses of TNFα (FIG. 21A). […] Here, an up to 22-fold increase in GFP^+ cells resulted from JQ1 treatment alone and a 45-fold increase when TNFα was added with JQ1 (FIG. 21B). Both cell lines were also treated with prostratin and SAHA (FIG. 27).
(§3) Two latent J-Lat cell lines A2 (containing a LTR-Tat-IRES-GFP construct) or A72 (containing a LTR-GFP construct) were treated with JQ1 or (R)-JQ1 in combination with TNFα or control at the indicated concentrations for 18 h, followed by flow cytometry analysis. […] Data represent average (±SD) of three independent experiments. All treatments in (A) and (B) on the X axis are in μM.

[2] = test system: latent LTR-GFP construct in J-Lat A72 cells; test: J-Lat A72 cells (LTR-GFP lacking Tat), flow cytometry of GFP; type: cell-based, HIV-1; details: 18 h
Method: as §1, §2, §3

[3] = test system: latent HIV-1 in Bcl-2-transduced resting CD4+ T cells; type: cell-based; details: 24-72 h, average of two donors
[4] = test system: latent DHIV-GFP, X4 virus in nonpolarized T helper cells; test: Primary T-cell model of latency, ex vivo differentiated nonpolarized CD4+ T cells; type: cell-based, HIV-1; details: 96 h after compound addition; minor effect only at highest doses
[5] = test system: HIV LTR-luciferase reporter (Tat transactivation); test: Tat transactivation of the HIV promoter, LTR-luciferase in Jurkat 1G5-Tat cells; type: cell-based; details: 1G5-Tat clonal cell lines
Method: Compounds that specifically bind to the bromodomain of PCAF in vitro were tested in an in vivo assay that measures the transactivation of the HIV promoter by Tat. The Jurkat 1G5 cells contain a stably integrated and silent HIV LTR-luciferase reporter construct. These cells were infected with an HIV-based retroviral vector expressing a 101-amino acids Tat (Tat2ex), generating the 1G5-Tat cells. Introduction of Tat protein activates HIV transcription and produces a stable increase in luciferase activity. Clonal cell lines were derived from the original population and have characterized them in terms of luciferase expression and response to Tat inhibitors. Luciferase expression is stable over time in each clone and is inhibited by more than 80% in response to DRB, a known inhibitor of CDK9 kinase activity and Tat transactivation.
Compounds were tested by incubating them at various concentrations ranging from 1.25 to 40 μM on either 1G5 cells, to test for effects on the HIV LTR, or on 1G5-Tat cells to test for effects on Tat-induced HIV transcription. After 24 hr, cells were harvested and processed for luciferase activity measurement.

[6] = test system: latent HIV (clone R7/E-/GFP) in Jurkat T cells; test: Reactivation of latent HIV in polyclonal Jurkat T cells (clone R7/E-/GFP), flow cytometry of GFP; type: cell-based, HIV-1; details: compound alone, increasing amounts
Method: A polyclonal population of Jurkat T cells containing latent HIV (clone R7/E-/GFP) was treated with increasing amounts of JQ1. This viral clone contains a frameshift mutation in the viral Env gene to prevent viral spread and expresses GFP in the Nef open reading frame, which allows separation of actively infected GFP^+ from GFP^− cells by cell sorting. GFP^− cells, which are mostly uninfected but contain a small fraction of latently infected cells with silenced HIV transcription, were treated with JQ1. Activation of transcription was measured by flow cytometry of GFP. […] Stimulation of cells with JQ1 produced up to fivefold more GFP-expressing cells than control-treated cells.
HIV clones R7/E-/GFP and NL4-3/E-/GFP-IRES-nef were derived from pR7-GFP and pNLENG1-EGFP by mutating the Env gene by inserting an early stop codon in the NdeI site. […]. Jurkat cells were spininfected with 25 ng of p24 per 10^6 cells, and GFP^− cells where collected in two rounds of cell sorting 5 and 15 days after infection. The expanded population of GFP^− cells, composed of uninfected and latently infected cells, was seeded in 96-well plates and treated with the indicated concentration of drugs in duplicates. The percentage of GFP^+ cells was detected after 24 h at the MACSQuant VYB FACS analyzer. Data are expressed as the mean percentage of GFP^+ cells, subtracting the average percentage of spontaneous GFP-reactivation in the untreated samples. (A) Jurkat cells containing latent R7/E-/GFP virus were treated with JQ1 or (R)-JQ1 in combination with Prostratin (0.5 μM), SAHA (2.5 μM), TNFα (1 ng/μl), or control at the indicated concentrations for 18 h, followed by flow cytometry analysis. […] Results represent average of two independent experiments. All treatments in (A) and (B) on the X axis are in μM.

SMILES	activation of HIV transcription (GFP) [1]	activation of HIV transcription (GFP) ([1]; listed as I-BET151)	activation of HIV transcription (GFP) [2]	activation of HIV transcription (GFP) ([2]; listed as I-BET151)	reactivation of latent HIV-1 relative to costimulation with αCD3 and αCD28 antibodies [3]	reversal of latency (GFP) [4]	inhibition of luciferase expression [5]	reactivation of HIV-1 (GFP+ cells) [6]
COc1cc2c(cc1-c1c(C)noc1C)ncc1[nH]c(=O)n([C@H](C)c3ccccn3)c12 [I-Bet151, 7-(3,5-dimethylisoxazol-4-yl)-8-methoxy-1-((R)-1-(pyridin-2-yl)ethyl)-1H-imidazo[4,5-c]quinolin-2(3H)-one]	effectively activated HIV from latency	increased GFP expression	effectively activated HIV from latency	increased GFP expression	same activation	–	–	–
O=C(CCCCCCC(=O)Nc1ccccc1)NO [SAHA, suberoylanilidehydroxamic acid]	–	–	–	–	–	resistant to reactivation	–	–
OC[C@H]1O[C@@H](n2cnc3cc(Cl)c(Cl)cc32)[C@H](O)[C@@H]1O [DRB]	–	–	–	–	–	–	more than 80%	–
COC(=O)C[C@@H]1N=C(c2ccc(Cl)cc2)c2c(sc(C)c2C)-n2c(C)nnc21 [MS417, Methyl 2-((6S)-4-(4-chlorophenyl)-2,3,9-trimethyl-6H-thieno[3,2-f][1,2,4]triazolo[4,3-a][1,4]diazepin-6-yl)acetate]	effectively activated HIV from latency; also recorded: increased GFP expression	–	effectively activated HIV from latency; also recorded: increased GFP expression	–	same activation	minor activatory effect	–	–
Cc1sc2c(c1C)C(c1ccc(Cl)cc1)=N[C@H](CC(=O)OC(C)(C)C)c1nnc(C)n1-2 [(R)-JQ1]	inactive and not and did not activate the integrated HIV promoter	–	did not activate the integrated HIV promoter	–	–	–	–	not
